In patent US11492359B2, “Near-infrared nerve-sparing fluorophores” (OREGON HEALTH & SCIENCE UNIVERSITY, priority 2018, dated 2022):

Key:
[1] = UV-Vis absorption and fluorescence spectroscopy of the Oxazine library; format: physicochemical; conditions: for Extinction coefficient: Beer's Law plots; for Quantum yield: relative, references Oxazine 1, Oxazine 170, Rhodamine 101
Description: All reagents were purchased from Sigma Aldrich, Fisher Scientific, TCI, or Ark Pharm. Unless otherwise indicated, all commercially available starting materials were used directly without further purification. Analytical thin layer chromatography (TLC) was performed on Millipore ready-to-use plates with silica gel 60 (F254, 32-63 μm). Flash chromatography was performed on Sorbent Technologies silica gel for column chromatography or on a Biotage Isolera Flash System using SNAP Ultra cartridges. High-resolution mass spectra (HRMS) were measured on a ThermoElectron LTQ-Orbitrap high resolution mass spectrometer with a dedicated Accela HPLC system, or an Agilent 6244 time-of-flight LCMS with diode array detector VL+. LCMS and Purity Characterization Mass-to-charge ratio and purity of the Oxazine compounds were characterized on an Agilent 6244 time-of-flight tandem liquid chromatography mass spectroscopy (LCMS) with diode array detector VL+. Sample (10 μL) was injected into a C18 column (Poroshell 120, 4.6×50 mm, 2.7 micron), and eluted with a solvent system of A (H2O, 0.1% FA) and B (MeCN, 01.% FA) at 0.4 mL/min, from A/B=90/10 to 5/95 over 10 min, maintained at A/B=5/95 for additional 5 min. Ions were detected in positive ion mode by setting the capillary voltage at 4 kV and gas temperature at 350° C. Purity was calculated through area under the curve analysis of the absorbance at 254 nm. UV-Vis Absorption and Fluorescence Spectroscopy. UV-Vis spectra were collected with a Cary 50 UV-Vis spectrophotometer at room temperature, using a 1-cm quartz cuvette. Fluorescence spectra were collected on a Cary Eclipse fluorescence spectrophotometer (Agilent Technologies). All absorbance spectra were reference corrected. Extinction coefficient was calculated from Beer's Law plots of absorbance versus concentration. Fluorescence spectra were corrected for the wavelength dependent response of the R928 photomultiplier tube using a manufacturer generated correction file. Relative quantum yields are reported as the average of multiple measurements using multiple references, including Oxazine 1, Oxazine 170, and Rhodamine 101. Physicochemical Property Calculation. Physicochemical partition coefficients (Log D) values at pH 7.4, number of hydrogen bond donors and acceptors, polar surface area, and the number of rotatable bonds were calculated using Marvin and JChem calculator plugins (ChemAxon, Budapest, Hungary). Nerve-Specificity Screening using Direct/Topical Administration Each compound was screened for its tissue-specificity using a previously published direct/topical administration strategy in murine brachial plexus and sciatic nerves.^1 Each compound from the Oxazine library was formulated in the previously utilized co-solvent formulation (10% DMSO, 5% Kolliphor, 65% serum and 20% phosphate buffered saline) at 125 μM. 100 μL of the formulated Oxazine were incubated on the exposed brachial plexus or sciatic nerve for 5 minutes. The fluorophore containing solution was removed and the area was irrigated with saline 18 times to remove any unbound fluorophore. Co-registered fluorescence and color images were collected of each stained area 30 minutes after Oxazine direct/topical administration using a custom built macroscopic imaging system with 620/60 nm excitation and 700/75 nm bandpass emission filters. Custom written MatLab code was used to analyze the tissue specific fluorescence where regions of interest were selected on the nerve, muscle and adipose tissue using the white light images. These regions of interest were then analyzed on the co-registered matched fluorescence images permitting assessment of the nerve to muscle and nerve to adipose ratios in blinded manner. […]

[2] = test system: murine brachial plexus and sciatic nerves; experiment: Nerve-specificity screening using systemic administration; format: in vivo; conditions: IV, mice

| Max Abs [1] [nm] | Max Em [1] [nm] | Max Ex [1] [nm] | Extinction coefficient [1] [M⁻¹ cm⁻¹] | Quantum yield [1] [%] | Molecule | toxicity upon systemic administration [2] |
| --- | --- | --- | --- | --- | --- | --- |
| 611 | 632 | 610 | 58410 | 43.02 | CC/N=c1/cc2oc3cc(NCC)c(F)cc3nc-2cc1C [LGW05-81, (Z)—N-(7-(ethylamino)-8-fluoro-2-methyl-3H-phenoxazin-3-ylidene)ethanaminium] | – |
| 624 | 638 | 630 | 40041 | 27.22 | CC/N=c1/cc2oc3cc4c(cc3nc-2cc1C)CCCN4 [LGW03-12, (Z)—N-(8-methyl-1,2,3,4-tetrahydro-9H-pyrido[3,2-b]phenoxazin-9-ylidene)ethanaminium] | – |
| 620 | 635 | 620 | 42685 | 25.26 | CC/N=c1/cc2oc3c(C)c(NCC)ccc3nc-2cc1C [LGW02-58, (Z)—N-(7-(ethylamino)-2,6-dimethyl-3H-phenoxazin-3-ylidene)ethanaminium] | – |
| 678 | 699 | 680 | 38039 | 6.82 | CCN1c2cc3oc4cc(=[N+](CC)CC)ccc-4nc3cc2C(C)=CC1(C)C [LGW03-52, N-ethyl-N-(1-ethyl-2,2,4-trimethyl-1,2-dihydro-9H-pyrido[3,2-b]phenoxazin-9-ylidene)ethanaminium] | – |
| 655 | 674 | 655 | 48226 | 15.78 | c1cc2nc3ccc(=[N+]4CCCC4)cc-3oc2cc1N1CCCC1 [LGW03-31, 1-(7-(pyrrolidin-1-yl)-3H-phenoxazin-3-ylidene)pyrrolidin-1-ium] | – |
| 620 | 638 | 620 | 18223 | 34.29 | CC/N=c1/cc2oc3cc(NCC)c(Cl)cc3nc-2cc1Cl [LGW05-39, (Z)—N-(2,8-dichloro-7-(ethylamino)-3H-phenoxazin-3-ylidene)ethanaminium] | – |
| 640 | 661 | 640 | 35942 | 11.94 | CC/N=c1/cc2oc3cc(N4CCCC4)ccc3nc-2cc1C [LGW03-06, (Z)—N-(2-methyl-7-(pyrrolidin-1-yl)-3H-phenoxazin-3-ylidene)ethanaminium] | – |
| 611 | 636 | 615 | 41229 | 31.74 | CC/N=c1/cc2oc3cc(NCC)cc(C)c3nc-2cc1C [LGW02-59, (Z)—N-(7-(ethylamino)-2,9-dimethyl-3H-phenoxazin-3-ylidene)ethanaminium] | – |
| 661 | 680 | 665 | 66206 | 3.49 | CC[N+](CC)=c1ccc2nc3ccc(N4CCCCC4)cc3oc-2c1 [LGW03-18, N-ethyl-N-(7-(piperidin-1-yl)-3H-phenoxazin-3-ylidene)ethanaminium] | – |
| 701 | 718 | 710 | 34002 | 36.68 | CCN1c2cc3c(cc2C(C)=CC1(C)C)N=c1cc2c(cc1O3)=[N+](CC)C(C)(C)C=C2C [LGW05-66, 1,11-diethyl-2,2,4,8,10,10-hexamethyl-10,11-dihydro-2H-dipyrido[3,2-b:2′,3′-i]phenoxazin-1-ium] | – |

More lines, now with the values behind:

| Molecule | Max Abs [1] [nm] | Max Em [1] [nm] | Max Ex [1] [nm] | Extinction coefficient [1] [M⁻¹ cm⁻¹] | Quantum yield [1] [%] | toxicity upon systemic administration [2] |
| --- | --- | --- | --- | --- | --- | --- |
| CC/N=c1/cc2oc3c4c5c(cc3nc-2cc1C)CCCN5CCC4 [LGW01-99, (Z)—N-(11-methyl-2,3,6,7-tetrahydro-1H,5H,12H-quinolizino[1,9-bc]phenoxazin-12-ylidene)ethanaminium] | 648 | 667 | 650 | 56046 | 10.14 | toxic upon systemic administration |
| c1c2c(cc3c1Oc1cc4c(cc1=N3)OCCN=4)OCCN2 [LGW03-65, 3,8,9,10-tetrahydro-2H-bis([1,4]oxazino)[2,3-b:3′,2′-i]phenoxazin-4-ium] | 629 | 643 | 630 | 28067 | 27.39 | – |
| CCN1CCCc2cc3c(cc21)Oc1cc2c(cc1=N3)CCC[N+]=2CC [LGW02-99, 1,11-diethyl-3,4,8,9,10,11-hexahydro-2H-dipyrido[3,2-b:2′,3′-i]phenoxazin-1-ium] | 640 | 675 | 665 | 59971 | 24.67 | – |
| CC/N=c1/cc2oc3cc(N4CCCCC4)ccc3nc-2cc1C [LGW03-21, (Z)—N-(2-methyl-7-(piperidin-1-yl)-3H-phenoxazin-3-ylidene)ethanaminium] | 642 | 661 | 640 | 36049 | 2.25 | – |
| Cc1cc2nc3cc(C)c(=N)cc-3oc2cc1N [LGW06-14, 7-amino-2,8-dimethyl-3H-phenoxazin-3-iminium] | 590 | 606 | 590 | 39303 | 37.61 | – |
| CCCNc1cc2oc3c/c(=N/CC)c(C)cc-3nc2cc1C [LGW04-32, (Z)—N-(2,8-dimethyl-7-(propylamino)-3H-phenoxazin-3-ylidene)ethanaminium] | 620 | 638 | 620 | 61084 | 39.77 | – |
| CC/N=c1/cc2oc3cc(N(C)C)ccc3nc-2cc1C [LGW04-36, (Z)—N-(7-(dimethylamino)-2-methyl-3H-phenoxazin-3-ylidene)ethanaminium] | 636 | 657 | 635 | 60819 | 8.15 | – |
| N-ethyl-N-(2,2,4,8-tetramethyl-1,2-dihydro-9H-pyrido[3,2-b]phenoxazin-9-ylidene)ethanaminium [LGW01-56] | 664 | 684 | 670 | 38832 | 11.68 | – |
| c1c2c3c(c4c1N=c1cc5c6c(c1O4)CCC[N+]=6CCC5)CCCN3CCC2 [LGW02-87, 2,3,6,7,12,13,16,17-octahydro-1H,5H,11H,15H-diquinolizino[1,9-bc:1′,9′-hi]phenoxazin-4-ium] | 678 | 690 | 680 | 59937 | 15.03 | – |
| CCN1CCc2cc3c(cc21)Oc1cc2c(cc1=N3)CC[N+]=2CC [LGW07-59, 1,9-diethyl-2,3,7,8-tetrahydro-1H-dipyrrolo[3,2-b:2′,3′-i]phenoxazin-9-ium] | 649 | 665 | 655 | 51130 | 32.17 | – |
| CC/N=c1/cc2oc3cc4c(cc3nc-2cc1C)OCCN4 [LGW03-41, (Z)—N-(9-methyl-3,4-dihydro-[1,4]oxazino[2,3-b]phenoxazin-8(2H)-ylidene)ethanaminium] | 607 | 641 | 625 | 19729 | 25.80 | – |
